The record followed here is PubChem BioAssay AID1996.

≈ marks a conversion by molar mass, not a printed value.

For the series the following is noted: buffer; pH 7.4; 200.0 µM.
In general, kinetic solubility refers to the concentration staying in solution when a stock, usually in DMSO, is diluted into the medium. Consider `CC(C)c1ccc(NC(=O)CNCC(c2ccccc2)N(C)C)cc1` (stereo unspecified), for which the solubility (kinetic) came out at 32.9 µg/mL (≈ 96.9 µM).
The value for `CCOC(=O)C1=C(C)Nc2ccccc2N=C1N` was greater than 36.8 µg/mL; that for `Cc1ccc2cc3c(nc2c1)N(c1ccccc1)CC3` was less than 0.3 µg/mL.
The value for `COC(=O)c1ccc(C(=O)N=c2sccn2C)cc1` was 13.9 µg/mL (≈ 50.3 µM); that for `Oc1ccc(-c2nc3ccccc3s2)cc1` was 6.6 µg/mL (≈ 29 µM); that for `CN(C(=O)c1cc2ccccc2o1)c1c(N)n(Cc2ccccc2)c(=O)[nH]c1=O` was greater than 58.6 µg/mL.
The value for `CCc1cccc(C)c1NC(=S)NCC1CCN(c2ccc(OC)cc2)C1` (stereo unspecified) was 2.7 µg/mL (≈ 7.04 µM); that for `O=C(Nc1cccc(O)c1)c1ccccc1[N+](=O)[O-]` was 36.3 µg/mL (≈ 141 µM).
The molecule `COC(=O)c1cc(-c2cccc(OC)c2)c2c(=O)[nH]c(=O)n(C)c2n1` had a kinetic solubility of 3.4 µg/mL (≈ 9.96 µM).
`O=C(CSCc1ccccc1Cl)NCCSc1ccccn1` showed a solubility (kinetic) of 50.4 µg/mL (≈ 143 µM).
The molecule `Cc1ccc(S(=O)(=O)N2CCC(C(=O)OCC(=O)NCc3cccc(Cl)c3)CC2)cc1C` returned a solubility (kinetic) of 11 µg/mL (≈ 23 µM). Compared with the last molecule, the solubility kinetic is about 4.6-fold lower.
The value for `COc1ccc(-c2noc(CN(C)C(=O)c3ccoc3C)n2)cc1OC` was 43.3 µg/mL (≈ 121 µM); that for `COC(=O)c1sccc1NC(=O)COc1cccc(C)c1` was less than 0.7 µg/mL; that for `COCCNC(=S)N(c1ccccc1)C(C)C` was greater than 37.9 µg/mL.
The value for `CC(Oc1ccc(Cl)cc1)C(=O)N1CCCc2ccccc21` (stereo unspecified) was 2.1 µg/mL (≈ 6.65 µM); that for `CC(C)CCNC(=O)Cc1csc(-c2ccccc2)n1` was 41.4 µg/mL (≈ 144 µM); that for `CCc1nc(SCc2ccccn2)[nH]c(=O)c1C` was greater than 39.2 µg/mL.
For `O=Cc1c[nH]c2ccc(C(=O)c3ccccc3)cc12`, the solubility (kinetic) turned out to be 4.3 µg/mL (≈ 17.3 µM).
The value for `Cc1cccc(C(=O)NCC(=O)N2CCCC2)c1` was greater than 36.9 µg/mL; that for `COc1ccc(NC(=O)NCc2ccco2)cc1OC` was 37.6 µg/mL (≈ 136 µM); that for `CSc1ncccc1C(=O)N(C)CC(=O)Nc1cccc(F)c1` was greater than 50 µg/mL.
The value for `O=C(O)c1ccc(N/C(=N\S(=O)(=O)c2ccc(Cl)cc2)c2ccccc2)cc1` was 56.3 µg/mL (≈ 136 µM); that for `Cc1cc(C)cc(NC(=O)c2sc3nc(C)cc(C)c3c2N)c1` was 0.3 µg/mL (≈ 0.922 µM).
The value for `Cn1c(=O)c2c(nc(Cl)n2CCOc2ccccc2)n(C)c1=O` was 6.7 µg/mL (≈ 20 µM); that for `O=C(O)c1cc2c(cc1NC(=O)C1CCCC1)OCCO2` was greater than 43.7 µg/mL; that for `C=CCn1c(C)nnc1SCC(=O)NC1CCCCC1` was greater than 44.2 µg/mL.
For the molecule `Cc1nc2ccccc2c(=O)n1-c1ccc(F)cc1F`, the kinetic solubility was 36.9 µg/mL (≈ 136 µM).
The value for `Clc1nn2cnnc2c2ccccc12` was greater than 30.7 µg/mL; that for `CC(NC(=S)NC(=O)c1ccccc1)c1ccccc1` (stereo unspecified) was 6.4 µg/mL (≈ 22.5 µM).
As to `CC(C)(C)NC(=O)COC(=O)c1ccc(Cl)nc1`, the kinetic solubility came to 36.4 µg/mL (≈ 134 µM).
The value for `CC(=O)N1C(=O)NC2=C(C(=O)CCC2)C1c1cccc([N+](=O)[O-])c1` (stereo unspecified) was greater than 49.4 µg/mL.
The value for `CN(C)/C=C/C(=O)C(F)(F)F` was 17.9 µg/mL (≈ 107 µM); that for `CCOC(=O)N1CCN(Cc2nc(-c3cccs3)no2)CC1` was 44 µg/mL (≈ 136 µM); that for `Cn1c(N)c(C(=O)COC(=O)COc2ccc(Cl)cc2Cl)c(=O)n(C)c1=O` was 4.7 µg/mL (≈ 11.3 µM).
The value for `N#Cc1ccccc1COC(=O)c1cccnc1N` was 10.5 µg/mL (≈ 41.5 µM); that for `O=C1CSC(c2cccnc2)N1Cc1cccnc1` (stereo unspecified) was 40.2 µg/mL (≈ 148 µM).
`CC(=O)c1cn(N2CCCCC2)c(=O)[nH]c1=O` came in with a kinetic solubility greater than 35.6 µg/mL.
The value for `O=C(Cn1ccccc1=O)NCc1ccc(F)cc1` was 24.1 µg/mL (≈ 92.6 µM); that for `CC(C)NC(=O)c1cc(-c2ccc3c(c2)OCO3)on1` was 17.9 µg/mL (≈ 65.3 µM); that for `CCOC(=O)c1csc(NC(=O)CN2CCCCC2)n1` was greater than 44.6 µg/mL.
The value for `O=C(CNC(=O)c1cccs1)NCC(=O)OCC(=O)c1ccccc1` was greater than 54.1 µg/mL; that for `Cn1c(CCNC(=O)C2CCCCC2)nc2cc([N+](=O)[O-])ccc21` was 44 µg/mL (≈ 133 µM).
Turning to `Nc1nc(-c2cc(Cl)cc(Cl)c2OC(F)F)cs1`, the kinetic solubility was determined as 2.3 µg/mL (≈ 7.39 µM).
The value for `Cc1ccc(NC(=O)CN(C)C(=O)C2CCC2)cc1` was greater than 39.1 µg/mL; that for `CSc1nc(N)nc(C(C)C)n1` was greater than 27.6 µg/mL.
The value for `Cc1cccnc1NC(=S)NC(=O)c1oc2ccccc2c1C` was 4.7 µg/mL (≈ 14.4 µM).
In the case of `COc1ccc(/C(N)=N/OC(=O)CCc2ccccc2)cc1`, the kinetic solubility came out at 9.9 µg/mL (≈ 33.2 µM).
The value for `COc1cccc(NC(=O)CN2C(=O)C(=O)N(C3CCCC3)C2=O)c1` was greater than 51.8 µg/mL.
The value for `O=C(O)COCC(=O)NC1CCN(Cc2ccccc2)CC1` was greater than 46 µg/mL; that for `CCOC(=O)C1CCN(c2ncnc3c2cnn3C)CC1` was greater than 43.4 µg/mL.
The value for `CCOC(=O)c1csc(N)c1-c1ccc([N+](=O)[O-])cc1` was 5.5 µg/mL (≈ 18.8 µM).
The molecule `Cc1cc(C)c(S(=O)(=O)Nc2nccs2)c(C)c1` displayed a kinetic solubility of 36.1 µg/mL (≈ 128 µM).
The value for `CCn1c(C)cc(O)cc1=O` was greater than 23 µg/mL; that for `CCn1c(=NC(=O)C2COc3ccccc3O2)sc2c(C)ccc(OC)c21` (stereo unspecified) was less than 0.4 µg/mL.
`CSc1ncccc1C(=O)Nc1ccc2c(c1)OCO2`: the solubility (kinetic) is 30.8 µg/mL (≈ 107 µM).
The value for `c1ccc(-c2nc(N3CCOCC3)sc2-c2ccccc2)cc1` was less than 0.3 µg/mL; that for `O=C(O)CSCC(=O)NC1CCCc2ccccc21` (stereo unspecified) was greater than 41.9 µg/mL; that for `Cc1ccc(C(C)C)cc1S(=O)(=O)Nc1ccncc1` was 3.3 µg/mL (≈ 11.4 µM).
The value for `O=C(Oc1ccc(C(=S)N2CCOCC2)cc1Cl)c1ccccc1F` was 9.9 µg/mL (≈ 26.1 µM).
`COCC(C)n1c(SCC(=O)N2CCOCC2)nc2ccccc2c1=O` (stereo unspecified) showed a kinetic solubility greater than 56.6 µg/mL.
The value for `Cn1c2ccccc2c2ncn(Cc3ccc(F)cc3)c(=O)c21` was less than 0.2 µg/mL; that for `O=C(Cc1ccc(F)cc1)NC1CCSC1=O` (stereo unspecified) was greater than 38 µg/mL.
In the case of `CC(=O)c1c(C)[nH]c(C(=O)OCc2cc(-c3ccco3)on2)c1C`, the kinetic solubility came out at 2.5 µg/mL (≈ 7.61 µM).
The value for `CNc1c(NC(=O)C2CCC(C)CC2)c(=O)oc2ccccc12` (stereo unspecified) was 1.8 µg/mL (≈ 5.73 µM); that for `Cc1cc(C)c(C)c(S(=O)(=O)NCC(=O)Nc2ccccc2F)c1C` was 12.2 µg/mL (≈ 33.5 µM); that for `CC(C)[N+](C)(C)CC#CC(O)(c1ccccc1)c1ccccc1.[Br-]` was 51 µg/mL.
The value for `CCc1cc2c(=O)n(CC(=O)NC3CCCCC3)cnc2s1` was 20.5 µg/mL (≈ 64.2 µM); that for `Cc1cc(=O)oc(C)c1C(=O)Nc1ccccc1F` was 35.4 µg/mL (≈ 136 µM); that for `O=c1ccc2cc(S(=O)(=O)Nc3ccccc3F)ccc2o1` was greater than 47.9 µg/mL.
The value for `O=S(=O)([O-])CCC[n+]1ccc(Oc2ccccc2)cc1` was 21 µg/mL (≈ 71.6 µM); that for `COc1ccc(S(=O)(=O)N2CCOCC2)cc1NC(=O)COc1ccc2ccc(=O)oc2c1` was 6 µg/mL (≈ 12.6 µM); that for `O=C(Nc1ccccc1F)OC1CN2CCC1CC2` (stereo unspecified) was greater than 39.6 µg/mL.
Molecule `Cc1c(NS(C)(=O)=O)cccc1-c1nc2cccnc2s1` had a kinetic solubility of 42.9 µg/mL (≈ 134 µM).
The value for `Cc1ccc(S(=O)(=O)N2CCC(C)CC2)cc1` was 28.6 µg/mL (≈ 113 µM).
The value for `CC(NC(=O)COC(=O)c1ccc2ccccc2n1)c1ccccc1` (stereo unspecified) was 5.3 µg/mL (≈ 15.9 µM).
The value for `S=C(Nc1ccccc1Cl)NC1CCCCCC1` was 22 µg/mL (≈ 77.8 µM).
